Experimental data published in publication PMC9130766 (Frontiers in Pharmacology, 2022).
Entries after “also recorded” stand apart in the source; their conditions may differ. Read-outs that look alike come from different tables or passages of the source.

What was measured:
[1] = target: T1, bacterial neuraminidase (BNA) (Clostridium perfringens, UniProt P10481); experiment: biochemical; type: biochemical, C. perfrigens
E. coli biofilm = experiment: Antibiofilm assay (crystal violet staining); type: cell-based; conditions: Escherichia coli, 24 h, 37°C, read-out: concentration giving 50% inhibition of E. coli biofilm production
Protocol: A 96-well microtiter plate (polystyrene) was used to measure the anti-biofilm activity as described previously ([Mohanta et al., 2020]). First, 180 μl of DNB and 10 μl of the test pathogens (OD = 1.0, 600 nm) were added to individual wells. Then, 10 μl solutions of ugonin J with different concentrations was added to each well and the contents of each well were mixed thoroughly. The prepared plate was then incubated for 24 h in a static condition at 37°C. After incubation, the supernatant in the wells in the plate was discarded and the residue washed with phosphate buffered saline (pH 7.2) to remove the free-floating non-adherent cells from the wells in the plate. The plate was then air-dried for about 45 min before the bacteria in the wells were fixed with 2% (w/v) sodium acetate. This was followed by flooding the wells with crystal violet stain (0.1%, w/v) and incubation in the dark for 30 min. After this, the wells in the plate were washed with sterile deionized water to remove all dye and allowed to dry. After drying, each well in the plate was filled with 200 μl of ethanol (95%, v/v) and the absorbance of this solution was measured at 620 nm using the SpectraMax M3 Multi-Mode Microplate Reader. All assays were conducted in triplicate and the mean ± standard deviation was calculated. […]

[2] = target: T1, bacterial neuraminidase (BNA); experiment: biochemical; type: binding, C. perfrigens
E. coli = experiment: Cell growth of E. coli (OD 600 nm); type: cell-based, Escherichia coli; conditions: up to a concentration of 296 µM, compared to the control
Protocol: Escherichia coli was used in the study. All experiments were conducted in Difco™ Nutrient Broth (DNB) medium at 37°C. The E. coli was removed from glycerol stock at −80 C and transferred to the DNB plate. Next, in a 250 ml flask, a fresh single colony was inoculated into DNB (25 ml) medium and cultured at 37 C with 250 rpm for 24 h. Using the SpectraMaxM3 Multi-Mode Microplate Reader cell growth was found in the presence of different concentrations of compounds at optical densities of 600 nm. All experiments were conducted with at least three independent cultures ([Cho et al., 2013]).
Bacterial biofilms are a serious health concern owing to their abilities to tolerate antibiotics, host defense systems, and other external stresses ([Sharma et al., 2019]). It is generally accepted that neuraminidase participates in biofilm production together with quorum sensing. […] The crystal violet staining method was used for the detection of biofilm production. To investigate biofilm inhibition, E. coli was cultured overnight with or without inhibitor 1 in a 96-well plate.

[3] = target: T1, bacterial neuraminidase (BNA); type: biochemical, C. perfrigens
[4] = target: T1, bacterial neuraminidase (BNA); experiment: biochemical; type: biochemical, C. perfrigens; remark: listed apart in the source
[5] = pH 5.0, read-out: IC50, inhibition of bacterial neuraminidase (BNA)
[6] = IC50, inhibition of bacterial neuraminidase (BNA)

T1 sequence (P10481 whole entry, looked up): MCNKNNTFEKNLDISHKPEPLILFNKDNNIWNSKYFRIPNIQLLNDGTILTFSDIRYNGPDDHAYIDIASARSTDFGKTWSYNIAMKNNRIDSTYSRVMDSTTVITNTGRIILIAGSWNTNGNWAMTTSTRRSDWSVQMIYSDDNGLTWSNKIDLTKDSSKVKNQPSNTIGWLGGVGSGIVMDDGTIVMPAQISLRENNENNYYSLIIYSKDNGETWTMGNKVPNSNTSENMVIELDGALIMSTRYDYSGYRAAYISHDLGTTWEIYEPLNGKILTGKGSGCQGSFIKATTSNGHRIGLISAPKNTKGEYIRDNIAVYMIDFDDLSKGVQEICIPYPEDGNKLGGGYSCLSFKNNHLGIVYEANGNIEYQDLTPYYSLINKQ

Row | SMILES | Kinetic mode [1] | reversibility of BNA inhibition [1] | IC50 (E. coli biofilm) [nM] | K SV (Stern-Volmer quenching constant) [2] [L/mol] | Kd [2] [nM] | fluorescence (FS) reduction of BNA [2] | n (number of binding sites) [2] | growth inhibition of E. coli (E. coli) | k 5 [3] [min⁻¹] | k 6 [3] [min⁻¹] | IC50 [4, 5] [nM] | Ki [1] [nM] | fold greater BNA inhibitive ability than parent (mother) compound [4] [fold] | IC50 [4, 6] [nM]
1 | C=C1CCCC(C)(C)[C@@H]1Cc1c(O)cc2oc(-c3ccc(O)c(O)c3)cc(=O)c2c1O [Compound 1, ugonin J] | noncompetitive inhibitor; also recorded: Noncompetitive (0.05) | reversible inhibitor | 18000 | 4.77e+06 | 282 | complete FS reduction | 1.30 | no growth inhibition | 0.0103 | 0.0486 | 50 | – | – | –
2 | C=C1CCCC(C)(C)C1Cc1c(O)cc2c(c1O)C(=O)CC(c1ccc(O)c(O)c1)O2 (centres unmarked) [Compound 2, 2-(3,4-dihydroxyphenyl)-6-[(2,2-dimethyl-6 methylenecyclohexyl)methyl]-5,7-dihydroxy-chroman-4-one] | Noncompetitive (0.06) | – | – | 2.53e+06 | 746 | – | 1.01 | – | – | – | 70 | 60 | 250 | –
3 | CC1=CCCC(C)(C)C1Cc1c(O)c(O)cc2oc3c(=O)c4c(O)cc(O)cc4oc3c12 (centres unmarked) [Compound 4, ugonin M] | Noncompetitive (0.12) | – | – | 810000 | 1180 | – | 1.13 | – | – | – | 150 | 120 | – | –
4 | CC1(C)CCC[C@@]2(C)Oc3c(c(O)cc4oc(-c5ccc(O)c(O)c5)cc(=O)c34)C[C@@H]12 [Compound 5, ugonin S] | Noncompetitive (0.25) | – | – | 70000 | 16700 | – | 1.24 | – | – | – | 280 | 250 | – | 140
5 | CC1(C)CCCC2(C)Oc3cc4oc(-c5ccc(O)c(O)c5)cc(=O)c4c(O)c3CC12 (centres unmarked) [Compound 6, ugonin U] | Noncompetitive (0.29) | – | – | 50000 | 33300 | – | 1.44 | – | – | – | 350 | 290 | – | –
6 | O=C1C[C@@H](c2ccc(O)c(O)c2)Oc2cc(O)cc(O)c21 [Eriodictyol, reference compound] | – | – | – | – | – | – | – | – | – | – | 17800 | – | – | –
7 | O=c1cc(-c2ccc(O)c(O)c2)oc2cc(O)cc(O)c12 [Luteolin, reference compound] | – | – | – | – | – | did not undergo FS reduction | – | – | – | – | 4400 | – | – | –
8 | O=c1c(O)c(-c2ccc(O)c(O)c2)oc2cc(O)cc(O)c12 [Quercetin, reference compound] | – | – | – | – | – | – | – | – | – | – | – | – | – | 20400
